The text below walks through data of ChEMBL document CHEMBL5724914, “Linking interpersonal differences in gut microbiota composition and drug biotransformation activity” (2024).

Data set [1] in a line: The drug is tested on Z-016 corresponding to mouse gut metagenome with ENA study accession number: PRJEB37062 and ENA sample accession number: ERS12561815 for biotransformation under anaerobic condition. The drug concentrations were measured over 9 timepoints collected between 0 and 24 hours of incubation by liquid-chromatography-coupled mass spectrometry (LC–MS). Particulars: 2 µM.

The nature of data set [2]: The drug is tested on WLS-170 corresponding to human gut metagenome with ENA study accession number: PRJEB37062 and ENA sample accession number: ERS12561762 for biotransformation under anaerobic condition. The drug concentrations were measured over 9 timepoints collected between 0 and 24 hours of incubation by liquid-chromatography-coupled mass spectrometry (LC–MS). Conditions: 2 µM.

Data set [3] is described as follows: The drug is tested on Z-029 corresponding to rat gut metagenome with ENA study accession number: PRJEB37062 and ENA sample accession number: ERS12561828 for biotransformation under anaerobic condition. The drug concentrations were measured over 9 timepoints collected between 0 and 24 hours of incubation by liquid-chromatography-coupled mass spectrometry (LC–MS). Particulars: 2 µM.

The conditions of data set [4]: human gut metagenome, 24 h, 2 µM.
The nature of data set [5]: The drug is tested on Z-004 corresponding to metagenome with ENA study accession number: PRJEB37062 and ENA sample accession number: ERS12561804 for biotransformation under anaerobic condition. The drug concentrations were measured over 9 timepoints collected between 0 and 24 hours of incubation by liquid-chromatography-coupled mass spectrometry (LC–MS). Conditions: 2 µM.

The conditions of data set [6]: human gut metagenome, 24 h, 2 µM. The source holds these as a separate data set.
For data set [7] the following is noted: human gut metagenome, 24 h, 2 µM. The source holds these as a separate data set.
Data set [8] in a line: The drug is tested on Z-025 corresponding to rabbit gut metagenome with ENA study accession number: PRJEB37062 and ENA sample accession number: ERS12561824 for biotransformation under anaerobic condition. The drug concentrations were measured over 9 timepoints collected between 0 and 24 hours of incubation by liquid-chromatography-coupled mass spectrometry (LC–MS). Conditions: 2 µM.

Data set [9] in a line: The drug is tested on Z-014 corresponding to rat gut metagenome with ENA study accession number: PRJEB37062 and ENA sample accession number: ERS12561814 for biotransformation under anaerobic condition. The drug concentrations were measured over 9 timepoints collected between 0 and 24 hours of incubation by liquid-chromatography-coupled mass spectrometry (LC–MS). Particulars: 2 µM.

Structures are written as SMILES.
Also: call rule not given here.

As to `CCN(C)C(=O)Oc1cccc([C@H](C)N(C)C)c1.O=C(O)C(O)C(O)C(=O)O` [RIVASTIGMINE TARTRATE], the “Bacterial Biotransformation” value in [1], in [2], in data set [3], in data set [4], in data set [5] and in data set [6] was “Compound NOT metabolized” throughout. Also, the “Bacterial Biotransformation” value in [7], in data set [8] and in [9] was “Compound NOT metabolized” each time.
With `CCCC(C)(COC(N)=O)COC(=O)NC(C)C` (centres undefined) [CARISOPRODOL], the “Bacterial Biotransformation” value in data set [1] is listed as “Compound metabolized”; in data set [2], “Compound metabolized”; in data set [3] it was “Compound NOT metabolized”; in [4] it was “Compound metabolized”; in data set [5], “Compound metabolized”; in [6] it was “Compound metabolized”. For the same molecule, the “Bacterial Biotransformation” value in data set [7], in data set [8] and in data set [9] was “Compound metabolized” in each case.
With `COc1cc2nc(N3CCN(C(=O)C4COc5ccccc5O4)CC3)nc(N)c2cc1OC.CS(=O)(=O)O` (centres undefined) [DOXAZOSIN MESYLATE], the “Bacterial Biotransformation” value in data set [1] is “Compound NOT metabolized”; in data set [2], “Compound metabolized”; in [3], “Compound NOT metabolized”; in [4], “Compound metabolized”; in data set [5], “Compound NOT metabolized”; in data set [6], “Compound NOT metabolized”. The “Bacterial Biotransformation” value in [7] is recorded as “Compound metabolized”; in data set [8] it was “Compound NOT metabolized”; in [9], “Compound NOT metabolized”.
As to `CC(C)(C)N.CCC[C@H](N[C@@H](C)C(=O)N1[C@H](C(=O)O)C[C@@H]2CCCC[C@@H]21)C(=O)OCC` [PERINDOPRIL ERBUMINE], the “Bacterial Biotransformation” value in data set [1] was “Compound NOT metabolized”; in [2], “Compound metabolized”; in [3] it was “Compound NOT metabolized”; in [4] it was “Compound metabolized”; in data set [5], “Compound metabolized”; in [6], “Compound metabolized”. In addition, the “Bacterial Biotransformation” value is recorded as “Compound metabolized” in data set [7], “Compound NOT metabolized” in data set [8] and “Compound NOT metabolized” in data set [9].
Turning to `CCN(C(C)=O)c1cccc(-c2ccnc3c(C#N)cnn23)c1` [ZALEPLON], the “Bacterial Biotransformation” value is on record as “Compound metabolized” in data set [1]; “Compound metabolized” in [2]; “Compound NOT metabolized” in data set [3]; “Compound metabolized” in data set [4]; “Compound metabolized” in data set [5]; “Compound metabolized” in [6]. The “Bacterial Biotransformation” value in [7] is “Compound NOT metabolized”; in data set [8], “Compound metabolized”; in data set [9], “Compound NOT metabolized”.
With `CC(C)[C@H]1CC[C@H](C(=O)N[C@H](Cc2ccccc2)C(=O)O)CC1` [NATEGLINIDE], the “Bacterial Biotransformation” value in [1] is given as “Compound metabolized”; in data set [2], “Compound metabolized”; in [3], “Compound NOT metabolized”; in data set [4], “Compound metabolized”; in data set [5] it was “Compound NOT metabolized”; in [6] it was “Compound metabolized”. For the same molecule, the “Bacterial Biotransformation” value in [7] is given as “Compound metabolized”; in data set [8], “Compound metabolized”; in data set [9], “Compound NOT metabolized”.
For the molecule `O=C(CCCN1CCC2(CC1)C(=O)NCN2c1ccccc1)c1ccc(F)cc1` [SPIPERONE], the “Bacterial Biotransformation” value in data set [1] was “Compound NOT metabolized”; in [2], “Compound metabolized”; in [3] it was “Compound NOT metabolized”; in data set [4], “Compound NOT metabolized”; in data set [5], “Compound NOT metabolized”; in data set [6], “Compound NOT metabolized”. The “Bacterial Biotransformation” value in [7], in [8] and in data set [9] was “Compound NOT metabolized” in each case.
Take `CN(C)CCOC(C)(c1ccccc1)c1ccccn1.O=C(O)CCC(=O)O` (centres undefined) [DOXYLAMINE SUCCINATE]: the “Bacterial Biotransformation” value in data set [1], in [2], in [3], in data set [4], in data set [5] and in data set [6] was “Compound NOT metabolized” each time. Besides, the “Bacterial Biotransformation” value in [7], in data set [8] and in data set [9] was “Compound NOT metabolized” throughout.
`C=C[C@H]1CN2CC[C@H]1C[C@H]2[C@H](O)c1ccnc2ccc(OC)cc12.C=C[C@H]1CN2CC[C@H]1C[C@H]2[C@H](O)c1ccnc2ccc(OC)cc12.O.O.O=S(=O)(O)O` [QUININE SULFATE]: the “Bacterial Biotransformation” value in [1] is “Compound NOT metabolized”; in data set [2] it was “Compound metabolized”; in data set [3] it was “Compound NOT metabolized”; in [4], “Compound metabolized”; in data set [5], “Compound NOT metabolized”; in data set [6], “Compound NOT metabolized”. Further, the “Bacterial Biotransformation” value in data set [7], in data set [8] and in [9] was “Compound NOT metabolized” each time.
With `CC(C)C[C@H]1C(=O)N2CCC[C@H]2[C@]2(O)O[C@](NC(=O)[C@@H]3C=C4c5cccc6[nH]c(Br)c(c56)C[C@H]4N(C)C3)(C(C)C)C(=O)N12.CS(=O)(=O)O` [BROMOCRIPTINE MESYLATE], the “Bacterial Biotransformation” value in data set [1], in data set [2], in data set [3], in [4], in data set [5] and in data set [6] was “Compound metabolized” each time. In addition, the “Bacterial Biotransformation” value in data set [7], in data set [8] and in data set [9] was “Compound metabolized” in each case.
In the case of `CC(=O)O[C@]1(C(C)=O)CC[C@H]2[C@@H]3C=C(C)C4=CC(=O)CC[C@]4(C)[C@H]3CC[C@@]21C` [MEGESTROL ACETATE], the “Bacterial Biotransformation” value in data set [1] is on record as “Compound metabolized”; in data set [2] it was “Compound metabolized”; in data set [3], “Compound NOT metabolized”; in data set [4], “Compound metabolized”; in data set [5], “Compound metabolized”; in [6], “Compound metabolized”. The “Bacterial Biotransformation” value in data set [7] is on record as “Compound metabolized”; in [8] it was “Compound metabolized”; in data set [9], “Compound NOT metabolized”.
